Our source for the inhibition and Ki values is patent US7045528B2, “Benzofused heterozryl amide derivatives of thienopyridines useful as therapeutic agents, pharmaceutical compositions including the same, and methods for their use” (Agouron Pharmaceuticals, Inc., priority 2002, dated 2006).

In the assay the target is T1, unphosphorylated VEGF-R2Δ50 (FLVK) (Homo sapiens, UniProt P35968, DEL940-989/E990V).
T1 construct: VEGF-R2Δ50 contains residues 806–939 and 990–1171; made in house; host or cells: baculovirus/insect cell system
The assay is described as follows: VEGF-R2 coupled spectrophotometric assay, unphosphorylated VEGF-R2Δ50 (FLVK). It is filed as biochemical. The conditions noted are these: for inhibition at 0.05 µM: read-out: FLVK (% inh @ 50 nM). The source says: VEGF-R2 Construct for Assay:
This construct determines the ability of a test compound to inhibit tyrosine kinase activity. A construct (VEGF-R2Δ50) of the cytosolic domain of human vascular endothelial growth factor receptor 2 (VEGF-R2) lacking the 50 central residues of the 68 residues of the kinase insert domain was expressed in a baculovirus/insect cell system. Of the 1356 residues of full-length VEGF-R2, VEGF-R2Δ50 contains residues 806–939 and 990–1171, and also one point mutation (E990V) within the kinase insert domain relative to wild-type VEGF-R2. Autophosphorylation of the purified construct was performed by incubation of the enzyme at a concentration of 4 μM in the presence of 3 mM ATP and 40 mM MgCl2 in 100 mM HEPES, pH 7.5, containing 5% glycerol and 5 mM DTT, at 4° C. for 2 h. […] See Parast et al., Biochemistry, 37, 16788–16801 (1998).
Coupled Spectrophotometric (FLVK-P) Assay
The production of ADP from ATP that accompanies phosphoryl transfer was coupled to oxidation of NADH using phosphoenolpyruvate (PEP) and a system having pyruvate kinase (PK) and lactic dehydrogenase (LDH). The oxidation of NADH was monitored by following the decrease of absorbance at 340 nm (e340=6.22 cm^−1 mM^−1) using a Beckman DU 650 spectrophotometer. Assay conditions for phosphorylated VEGF-R2Δ50 (indicated as FLVK-P in the tables below) were the following: 1 mM PEP; 250 μM NADH; 50 units of LDH/mL; 20 units of PK/mL; 5 mM DTT; 5.1 mM poly(E4Y1); 1 mM ATP; and 25 mM MgCl2 in 200 mM HEPES, pH 7.5. Assay conditions for unphosphorylated VEGF-R2Δ50 (indicated as FLVK in the tables) were the following: 1 mM PEP; 250 μM NADH; 50 units of LDH/mL; 20 units of PK/mL; 5 mM DTT; 20 mM poly(E4Y1); 3 mM ATP; and 60 mM MgCl2 and 2 mM MnCl2 in 200 mM HEPES, pH 7.5. Assays were initiated with 5 to 40 nM of enzyme. Ki values were determined by measuring enzyme activity in the presence of varying concentrations of test compounds. […] The binding inhibitions were fitted to equation as described by Morrison. The data were analyzed using Enzyme Kinetic and Kaleidagraph software.

The mark [1] stands for this setting: 50 nM compound, unphosphorylated VEGF-R2Δ50.

Read-outs that look alike come from different tables or passages of the source.

T1 sequence (P35968 with tags, fused parts or gaps DEL940-989/E990V limits assumed): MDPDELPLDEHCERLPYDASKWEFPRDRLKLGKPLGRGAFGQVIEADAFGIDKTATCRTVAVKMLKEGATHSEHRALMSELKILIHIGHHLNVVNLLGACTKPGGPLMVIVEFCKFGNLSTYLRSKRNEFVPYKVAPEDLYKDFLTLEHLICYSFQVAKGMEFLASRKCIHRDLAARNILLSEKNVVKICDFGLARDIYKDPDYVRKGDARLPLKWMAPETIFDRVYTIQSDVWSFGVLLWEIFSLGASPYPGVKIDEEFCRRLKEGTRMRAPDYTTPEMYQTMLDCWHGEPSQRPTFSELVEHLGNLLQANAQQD

With `CNC(=O)c1c(C(C)C)oc2cc(Oc3ccnc4cc(C(=O)N5CC[C@@H](OC)C5)sc34)ccc12` [Example 15, 6-(2-[3-methoxypyrrolidine-1-carbonyl]thieno[3,2-b]pyridin-7-yloxy)-2-(1-methylethyl)benzofuran-3-carboxylic acid methylamide], the inhibition at 0.05 µM under setting [1] is 13%. Further, the inhibitory constant (Ki) (usually the dissociation constant of the complex between target and ligand, obtained from inhibition or displacement) (unphosphorylated VEGF-R2Δ50) is 0.0483 µM.

With `CNC(=O)c1cn(C)c2cc(Oc3ccnc4cc(C(=O)N5CC[C@@H](O)C5)sc34)ccc12` [Example 21, 6-{2-[3-(R)-hydroxy-pyrrolidine-1-carbonyl]thieno[3,2-b]pyridin-7-yloxy}-1-methyl-1H-indole-3-carboxylic acid methylamide], the inhibition at 0.05 µM under setting [1] is 43%. Besides, affinity (unphosphorylated VEGF-R2Δ50) was put at a Ki of 0.0131 µM.

With `CNC(=O)c1cn(C)c2cc(Oc3ccnc4cc(C(=O)N5CC[C@@H](OC)C5)sc34)ccc12` [Example 22, 6-[2-(3-methoxypyrrolidine-1-carbonyl)-thieno[3,2-b]pyridin-7-yloxy]-1-methyl-1H-indole-3-carboxylic acid methylamide], under setting [1], the inhibition at 0.05 µM was found to be 38%. Under “unphosphorylated VEGF-R2Δ50”, this compound showed a Ki of 0.0258 µM.

As to `CNC(=O)c1cn(C)c2cc(Oc3ccnc4cc(-c5nccn5C)sc34)ccc12` [Example 23, 1-Methyl-6-[2-(1-methyl-1H-imidazol-2-yl)-thieno[3,2-b]pyridin-7-yloxy]-1H-indole-3-carboxylic acid methylamide], the inhibition at 0.05 µM under setting [1] amounted to 19%. Under “unphosphorylated VEGF-R2Δ50”, the affinity, expressed as Ki, was 0.078 µM.

Regarding `CNC(=O)c1c(C)n(C)c2cc(Oc3ccnc4cc(C(=O)N(C)CCN(C)C)sc34)ccc12` [Example 29, N-[2-(Dimethylamino)ethyl]-7-({1,2-dimethyl-3-[(methylamino)carbonyl]-1H-indol-6-yl}oxy)-N-methylthieno[3,2-b]pyridine-2-carboxamide], the inhibition at 0.05 µM under setting [1] is 6%. Further, the inhibition constant Ki (unphosphorylated VEGF-R2Δ50) is 0.0888 µM.

For the compound `CNC(=O)c1c(C)n(C)c2cc(Oc3ccnc4cc(C(=O)N(C)CCO)sc34)ccc12` [Example 31], the inhibition at 0.05 µM under setting [1] worked out at 25%. This compound returned an inhibition constant Ki (unphosphorylated VEGF-R2Δ50) of 0.0302 µM.

Consider `CNC(=O)c1c(C)n(C)c2cc(Oc3ccnc4cc(C(=O)N5C[C@H](OC)[C@H](OC)C5)sc34)ccc12` [Example 36, 6-[2-(3,4-Dimethoxy-pyrrolidine-1-carbonyl)-thieno[3,2-b]pyridin-7-yloxy]-1,2-dimethyl-1H-indole-3-carboxylic acid methylamide], for which the inhibition at 0.05 µM under setting [1] was 41%. For the same compound, for the setting “unphosphorylated VEGF-R2Δ50”, the Ki stood at 0.0115 µM.

`CNC(=O)c1c(C)n(C)c2cc(Oc3ccnc4cc(-c5nc(C(C)(C)O)co5)sc34)ccc12` [Example 47, 6-{2-[4-(1-Hydroxy-1-methyl-ethyl)-oxazol-2-yl]-thieno[3,2-b]pyridin-7-yloxy}1,2-dimethyl-1H-indole-3-carboxylic acid methylamide]: under setting [1], the inhibition at 0.05 µM was found to be 41%. Affinity (unphosphorylated VEGF-R2Δ50) was put at a Ki of 0.0197 µM.

Regarding `CNC(=O)c1c(C)n(C)c2cc(Oc3ccnc4cc(-c5ncccn5)sc34)ccc12` [Example 50, 1,2-Dimethyl-6-(2-pyrimidin-2-yl-thieno[3,2-b]pyridin-7-yloxy)-1H-indole-3-carboxylic acid methylamide], the inhibition at 0.05 µM under setting [1] amounted to 36%. Moreover, the inhibition constant Ki (unphosphorylated VEGF-R2Δ50) was 0.0365 µM.

As to `CNC(=O)c1c(C)n(C)c2cc(Oc3ccnc4cc(-c5cccc(CN(C)C)n5)sc34)ccc12` [Example 52, 6-[2-(6-Dimethylaminomethyl-pyridin-2-yl)-thieno[3,2-b]pyridin-7-yloxy]-1,2-dimethyl-1H-indole-3-carboxyllc acid methylamide], the inhibition at 0.05 µM under setting [1] stood at 41%. This compound also gave an inhibitory constant (Ki) (unphosphorylated VEGF-R2Δ50) of 0.0249 µM.

For `Cc1c(C(=O)NCC(C)C)c2ccc(Oc3ccnc4cc(-c5nccs5)sc34)cc2n1C` [Example 67, 1,2-Dimethyl-4(2-thiazol-2-yl-thieno[3,2-b]pyridin-7-yloxy)-1 indole-3-carboxylic acid isobutyl-amide], the inhibition at 0.05 µM under setting [1] was found to be 58%. This compound registered an inhibitory constant (Ki) (unphosphorylated VEGF-R2Δ50) of 0.0125 µM.

`CCC(=O)c1cc2nccc(Oc3ccc4c(C(=O)NCCCN5CCOCC5)c(C)n(C)c4c3)c2s1` [Example 68, 1,2-Dimethyl-6-(2-propionyl-thieno[3,2-b]pyridin-7-yloxy)-1H-indole-3-carboxylic acid (3-morpholin-4-yl-propyl)-amide]: the inhibition at 0.05 µM under setting [1] turned out to be 37%.

Turning to `CCn1c(C)c(C(=O)NC)c2ccc(Oc3ccnc4cc(C(=O)N5CCC5)sc34)cc21` [Example 71, 6-[2-(Azetidine-1-carbonyl)thieno[3,2-b]pyridin-7-yloxy]-1-ethyl-2-methyl-1H-indole-3-carboxylic acid methylamide], the inhibition at 0.05 µM was 5%.

As to `CCn1c(C)c(C(=O)NC)c2ccc(Oc3ccnc4cc(-c5nccn5C)sc34)cc21` [Example 72, 1-Ethyl-2-methyl-6-[2-(1-methyl-1H-imidazol-2-yl)-thieno[3,2-b]pyridin-7-yloxy]-1H-indole-3-carboxylic acid methylamide], the inhibition at 0.05 µM worked out at 2%.

Consider `CCc1c(C(=O)NC)c2ccc(Oc3ccnc4cc(C(=O)N5CC[C@@H](O)C5)sc34)cc2n1C` [Example 73, 2-Ethyl-6-[2-(3-hydroxy-pyrrolidine-1-carbonyl)-thieno[3,2-b]pyridin-7-yloxy]-1-methyl-1H-indole-3-carboxylic acid methylamide], for which, under setting [1], the inhibition at 0.05 µM was determined as 48%. The compound further came in with a Ki (unphosphorylated VEGF-R2Δ50) of 0.0103 µM.

As to `CNC(=O)c1c(C(F)(F)F)n(C)c2cc(Oc3ccnc4cc(-c5nccn5C)sc34)ccc12` [Example 76, 1-Methyl-6-[2-(1-methyl-1H-imidazol-2-yl)-thieno[3,2-b]pyridin-7-yloxy]-2-trifluoromethyl-1H-indole-3-carboxylic acid methylamide], under setting [1], the inhibition at 0.05 µM was determined as 36%. This compound displayed a Ki (unphosphorylated VEGF-R2Δ50) of 0.00626 µM.

For `CCc1oc2cc(Oc3ccnc4cc(C(=O)N5CCC[C@H]5COC)sc34)ccc2c1C(=O)NC` [Example 96, 2-ethyl-6-(2-[(S)-2-(methoxymethyl)pyrrolidine-1-carbonyl]thieno[3,2-b]pyridin-7-yloxy)-benzofuran-3-carboxylic acid methyl amide], under setting [1], the inhibition at 0.05 µM worked out at 51%. Moreover, under “unphosphorylated VEGF-R2Δ50”, the Ki came out at 0.00961 µM.

Regarding `Cc1oc2cc(Oc3ccnc4ccsc34)ccc2c1C(=O)O` [Example 100, 2-Methyl-6[thieno[3,2-b]pyridin-7-yloxy]benzofuran-3-carboxylic acid], the inhibition at 0.05 µM under setting [1] came out at 0%.

`Cc1oc2cc(Oc3ccnc4ccsc34)ccc2c1C(=O)NCc1ccncc1` [Example 107, 2-Methyl-6-[Thieno(3,2-b)pyridin-7-yloxy]benzofuran-3-carboxylic acid 2-[(4-pyridyl)-methyl] amide]: the inhibition at 0.05 µM under setting [1] came to 17%. This compound returned a Ki (unphosphorylated VEGF-R2Δ50) of 0.0367 µM.

For the compound `Cc1oc2cc(Oc3ccnc4ccsc34)ccc2c1C(=O)NCCc1ccc(S(N)(=O)=O)cc1` [Example 108, 2-Methyl-6-(thieno[3,2-b]pyridin-7-yloxy)-benzofuran-3-carboxylic acid [2-(4-sulfamoyl-phenyl)-ethyl]-amide], the inhibition at 0.05 µM under setting [1] came to 61%.

In the case of `Cc1oc2cc(Oc3ccnc4ccsc34)ccc2c1C(=O)NCCOC(C)C` [Example 109, 2-Methyl-6-(thieno[3,2-b]pyridin-7-yloxy)-benzofuran-3-carboxylic acid (2-isopropoxy-ethyl)-amide], the inhibition at 0.05 µM under setting [1] came to 82%.

Consider `Cc1oc2cc(Oc3ccnc4ccsc34)ccc2c1C(=O)NCCC1CCCN1C` (stereo not shown) [Example 110, 2-Methyl-6-(thieno[3,2-b]pyridin-7-yloxy)-benzofuran-3-carboxylic acid [2-(1-methyl-pyrrolidin-2-yl)-ethyl]-amide], for which the inhibition at 0.05 µM under setting [1] was found to be 21%.

On to `Cc1cc(NC(=O)c2c(C)oc3cc(Oc4ccnc5ccsc45)ccc23)n[nH]1` [Example 111, 2-Methyl-6-(thieno[3,2-b]pyridin-7-yloxy)-benzofuran-3-carboxylic acid (5-methyl-1H-pyrazol-3-yl)-amide], for which, under setting [1], the inhibition at 0.05 µM amounted to 96%.

Turning to `Cc1oc2cc(Oc3ccnc4ccsc34)ccc2c1C(=O)NCCCN1CCOCC1` [Example 112, 2-Methyl-6-(thieno[3,2-b]pyridin-7-yloxy)benzofuran-3-carboxylic acid (3-morpholin-4-ylpropyl)-amide], under setting [1], the inhibition at 0.05 µM was determined as 91%.

As for `Cc1oc2cc(Oc3ccnc4ccsc34)ccc2c1C(=O)Nc1ccc2[nH]ccc2c1` [Example 113, 2-Methyl-6-(thieno[3,2-b]pyridin-7-yloxy)-benzofuran-3-carboxylic acid (1H-indol-5-yl)-amide], the inhibition at 0.05 µM under setting [1] came to 99%.
